Experimental data: patent publication US9096607B2, “Tumor necrosis factor inhibitors” (THE TRUSTEES OF THE UNIVERSITY OF PENNSYLVANIA, priority 2005, dated 2015)
Residue numbers refer to the chain shown, from its start.

Experiments:
wild type TNF-R1 = target: T1, wild type TNF-R1 (Homo sapiens, UniProt P19438); assay: Surface plasmon resonance, TNF-α binding to wild type TNF-R1; settings: SPR
T1 construct: The ectodomain of wild type TNF receptor 1 was obtained by PCR from pKP13; made in house
T1 sequence (P19438 30-211 limits assumed): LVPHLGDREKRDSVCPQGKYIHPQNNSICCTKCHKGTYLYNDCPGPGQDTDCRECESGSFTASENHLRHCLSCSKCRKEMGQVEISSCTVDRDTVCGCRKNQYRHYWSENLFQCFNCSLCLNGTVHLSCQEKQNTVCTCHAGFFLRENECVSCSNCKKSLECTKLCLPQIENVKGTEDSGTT
From the text: (§1) Mutations of the TNF-R1 receptor were made at residues 82Q and 112F in the cavity, which were mutated to 82E and 112E respectively. The structural integrity of the mutant receptor was verified by ligand binding in surface plasmon resonance (SPR) studies. […] TNF-α retained the ability to bind to the mutant receptor, albeit with somewhat reduced affinity. These studies confirm that the test compound bound to a single and specific cavity on wild type TNF-R1.
(§2) Recombinant TNF receptor wild type and mutant were immobilized to the CM5 sensor chip with a surface density of 2,000 resonance units. The binding affinity of TNF-α to TNF-R1 was estimated by BiaCORE 3000 (BiaCORE, Uppsala, Sweden) at 25° C. The apparent rate constants (kon and koff) and the equilibrium binding constant (Kd) for TNF/TNF-R binding interaction were estimated from the kinetic analysis of sensorgrams, using the BIA evaluation 3.0 software (BiaCORE).

mutant TNF-R1 = target: T2, mutant TNF-R1 (Homo sapiens, UniProt P19438, F141E/Q111E); assay: Surface plasmon resonance, TNF-α binding to mutant TNF-R1; settings: SPR, mutant TNF-R1 (82E, 112E)
T2 construct: The ectodomain of wild type TNF receptor 1 was obtained by PCR from pKP13; made in house
T2 sequence (P19438 30-211 Q111E/F141E limits assumed): T1 sequence (P19438 30-211 limits assumed) with Q82E, F112E
From the text: as §1, §2

TNF-α showed a Kd (wild type TNF-R1) of 0.379 nM and a Kd (mutant TNF-R1) of 4650 nM.
